From ChEMBL document CHEMBL1155907, “Structure-activity relationship of flavonoids as influenza virus neuraminidase inhibitors and their in vitro anti-viral activities” (Bioorg Med Chem, 2008)

Experiments:
Neuraminidase [1] = molecular target: T1, Neuraminidase (Influenza A virus, UniProt B4URF0)
Neuraminidase [2] = molecular target: T1, Neuraminidase; design: species or system Influenza A virus (A/Puerto Rico/8/1934(H1N1))
Neuraminidase [3] = molecular target: T1, Neuraminidase; design: species or system Influenza B virus
[4] = Cytotoxicity against MDCK cells by MTT assay; type: cell-based, Canis lupus familiaris; details: dog
Influenza A virus = assay: Antiviral activity against Influenza A virus Jinan/15/90 H3N2 assessed as reduction of virus-induced cytopathic effect; type: functional, organism-based
[5] = Cytotoxicity against MDCK cells assessed as maximal non-cytotoxic concentration by MTT assay; type: cell-based, Canis lupus familiaris; details: dog, read-out: MNCC
[6] = Selectivity index, ratio of CC50 to MDCK cells to IC50 to Influenza A Jinan/15/90 H3N2 virus; type: functional

T1 sequence (B4URF0 whole entry): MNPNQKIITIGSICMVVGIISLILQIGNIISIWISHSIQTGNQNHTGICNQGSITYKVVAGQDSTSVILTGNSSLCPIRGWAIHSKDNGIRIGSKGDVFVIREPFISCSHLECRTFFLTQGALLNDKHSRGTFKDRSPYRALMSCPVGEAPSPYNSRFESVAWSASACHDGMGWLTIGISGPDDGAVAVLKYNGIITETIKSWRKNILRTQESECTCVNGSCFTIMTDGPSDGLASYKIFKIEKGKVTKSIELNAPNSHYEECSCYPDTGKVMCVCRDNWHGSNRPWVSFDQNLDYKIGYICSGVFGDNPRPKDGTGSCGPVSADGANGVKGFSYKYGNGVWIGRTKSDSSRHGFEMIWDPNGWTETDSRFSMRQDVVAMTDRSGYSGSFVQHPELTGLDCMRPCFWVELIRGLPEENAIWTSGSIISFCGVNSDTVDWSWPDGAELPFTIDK

## O=C1/C(=C\c2ccccc2)Oc2cc(O)ccc21
Neuraminidase [1]
  IC50: 73.3 µM
Neuraminidase [2]
  IC50: 72 µM
Neuraminidase [3]
  IC50: 86.6 µM

## O=C1/C(=C\c2ccc(O)cc2)Oc2cc(O)cc(O)c21
Neuraminidase [1]
  IC50: 22.3 µM
[4]
  CC50: > 741 µM
Neuraminidase [2]
  IC50: 25.6 µM
Influenza A virus
  IC50: > 741 µM
[5]
  MNTC: > 741 µM
Neuraminidase [3]
  IC50: 25.4 µM

## O=C1/C(=C\c2ccc(O)cc2)Oc2cc(O)ccc21
Neuraminidase [1]
  IC50: 22.1 µM
[4]
  CC50: 152 µM
Neuraminidase [2]
  IC50: 22 µM
[6]
  Ratio CC50/IC50: 9.64
Influenza A virus
  IC50: 15.7 µM
[5]
  MNTC: 87.5 µM
Neuraminidase [3]
  IC50: 22.9 µM

## Oc1cc(O)c2c(c1)O[C@@H](c1ccc(O)c(O)c1)[C@@H](O)C2 [(+)-EPICATECHIN]
Neuraminidase [1]
  IC50: > 100 µM
Neuraminidase [2]
  IC50: > 100 µM
Neuraminidase [3]
  IC50: > 100 µM

## O=c1cc(-c2ccc(O)cc2)oc2cc(O)cc(O)c12 [APIGENIN]
Neuraminidase [1]
  IC50: 28.9 µM
[4]
  CC50: 39.6 µM
Neuraminidase [2]
  IC50: 31.6 µM
[6]
  Ratio CC50/IC50: 8.35
Influenza A virus
  IC50: 4.74 µM
[5]
  MNTC: 7.63 µM
Neuraminidase [3]
  IC50: 45.7 µM

## Oc1cc(O)c2c(c1)O[C@H](c1ccc(O)c(O)c1)[C@@H](O)C2 [CATECHIN]
Neuraminidase [1]
  IC50: > 100 µM
Neuraminidase [2]
  IC50: > 100 µM
Neuraminidase [3]
  IC50: > 100 µM

## O=c1cc(-c2ccccc2)oc2cc(O)cc(O)c12 [CHRYSIN]
Neuraminidase [1]
  IC50: 33.4 µM
Neuraminidase [2]
  IC50: 45.7 µM
Neuraminidase [3]
  IC50: 52.9 µM

## O=c1c(-c2ccc(O)cc2)coc2cc(O)ccc12 [DAIDZEIN]
Neuraminidase [1]
  IC50: 26.6 µM
[4]
  CC50: > 787 µM
Neuraminidase [2]
  IC50: 37.1 µM
Influenza A virus
  IC50: > 787 µM
[5]
  MNTC: > 787 µM
Neuraminidase [3]
  IC50: 46.8 µM

## COc1ccc(-c2coc3cc(O)ccc3c2=O)cc1 [FORMONONETIN]
Neuraminidase [1]
  IC50: > 100 µM
Neuraminidase [2]
  IC50: > 100 µM
Neuraminidase [3]
  IC50: > 100 µM

## O=c1cc(-c2ccc(O)c(O)c2)oc2cc(O[C@@H]3O[C@H](CO)[C@@H](O)[C@H](O)[C@H]3O)cc(O)c12 [GALUTEOLIN]
Neuraminidase [1]
  IC50: 52.2 µM
[4]
  CC50: > 1120 µM
Neuraminidase [2]
  IC50: 47.4 µM
Influenza A virus
  IC50: > 1120 µM
[5]
  MNTC: > 1120 µM
Neuraminidase [3]
  IC50: 58.6 µM

## O=c1c(-c2ccc(O)cc2)coc2cc(O)cc(O)c12 [GENISTEIN]
Neuraminidase [1]
  IC50: 134 µM
Neuraminidase [2]
  IC50: 77.1 µM
Neuraminidase [3]
  IC50: 83.3 µM

## COc1ccc([C@@H]2CC(=O)c3c(O)cc(O[C@@H]4O[C@H](CO[C@@H]5O[C@@H](C)[C@H](O)[C@@H](O)[C@H]5O)[C@@H](O)[C@H](O)[C@H]4O)cc3O2)cc1O [HESPERIDIN]
Neuraminidase [1]
  IC50: > 100 µM
Neuraminidase [2]
  IC50: > 100 µM
Neuraminidase [3]
  IC50: > 100 µM

## COc1c(O)cc2oc(-c3ccc(O)cc3)cc(=O)c2c1O [HISPIDULIN]
Neuraminidase [1]
  IC50: 26 µM
[4]
  CC50: 172 µM
Neuraminidase [2]
  IC50: 46.3 µM
[6]
  Ratio CC50/IC50: 6.98
Influenza A virus
  IC50: 24.7 µM
[5]
  MNTC: 24.7 µM
Neuraminidase [3]
  IC50: 33.2 µM

## O=c1c(O)c(-c2ccc(O)cc2)oc2cc(O)cc(O)c12 [KAEMPFEROL]
Neuraminidase [1]
  IC50: 38.1 µM
Neuraminidase [2]
  IC50: 58.6 µM
Neuraminidase [3]
  IC50: 46.4 µM

## O=C1C[C@@H](c2ccc(O[C@@H]3O[C@H](CO)[C@@H](O)[C@H](O)[C@H]3O)cc2)Oc2cc(O)ccc21 [LIQUIRITIN]
Neuraminidase [1]
  IC50: > 100 µM
Neuraminidase [2]
  IC50: > 100 µM
Neuraminidase [3]
  IC50: > 100 µM

## O=c1cc(-c2ccc(O)c(O)c2)oc2cc(O)cc(O)c12 [LUTEOLIN]
Neuraminidase [1]
  IC50: 32.6 µM
[4]
  CC50: 12.4 µM
Neuraminidase [2]
  IC50: 33.7 µM
[6]
  Ratio CC50/IC50: 1.82
Influenza A virus
  IC50: 6.82 µM
[5]
  MNTC: 7.2 µM
Neuraminidase [3]
  IC50: 53.3 µM

## O=c1c(O)c(-c2cc(O)c(O)c(O)c2)oc2cc(O)cc(O)c12 [MYRICETIN]
Neuraminidase [1]
  IC50: 46.2 µM
Neuraminidase [2]
  IC50: 82.6 µM
Neuraminidase [3]
  IC50: 75.4 µM

## O=C1C[C@@H](c2ccc(O)cc2)Oc2cc(O)cc(O)c21 [NARINGENIN]
Neuraminidase [1]
  IC50: > 100 µM
Neuraminidase [2]
  IC50: > 100 µM
Neuraminidase [3]
  IC50: > 100 µM

## CCC(CC)O[C@@H]1C=C(C(=O)O)C[C@H](N)[C@H]1NC(C)=O [OSELTAMIVIR CARBOXYLATE]
[4]
  CC50: 17.1 µM
Influenza A virus
  IC50: 0.15 µM
[5]
  MNTC: 1.02 µM

## O=c1c(O)c(-c2ccc(O)c(O)c2)oc2cc(O)cc(O)c12 [QUERCETIN]
Neuraminidase [1]
  IC50: 87.6 µM
Neuraminidase [2]
  IC50: 58.4 µM
Neuraminidase [3]
  IC50: 67.5 µM

## COc1cc(O)c2c(=O)c(O)c(-c3ccc(O)cc3)oc2c1 [RHAMNOCITRIN]
Neuraminidase [1]
  IC50: 83.9 µM
Neuraminidase [2]
  IC50: 51.5 µM
Neuraminidase [3]
  IC50: 62 µM

## NC(=O)c1ncn([C@@H]2O[C@H](CO)[C@@H](O)[C@H]2O)n1 [RIBAVIRIN]
[4]
  CC50: > 512 µM
[6]
  Ratio CC50/IC50: >19.98
Influenza A virus
  IC50: 25.6 µM

## C[C@@H]1O[C@@H](OC[C@H]2O[C@@H](Oc3c(-c4ccc(O)c(O)c4)oc4cc(O)cc(O)c4c3=O)[C@H](O)[C@@H](O)[C@@H]2O)[C@H](O)[C@H](O)[C@H]1O [RUTIN]
Neuraminidase [1]
  IC50: 87.7 µM
Neuraminidase [2]
  IC50: 52.2 µM
Neuraminidase [3]
  IC50: > 100 µM

## O=C(O)[C@H]1O[C@@H](Oc2cc3oc(-c4ccc(O)cc4)cc(=O)c3c(O)c2O)[C@H](O)[C@@H](O)[C@@H]1O [SCUTELLARIN]
Neuraminidase [1]
  IC50: 47.3 µM
Neuraminidase [2]
  IC50: 50.6 µM
Neuraminidase [3]
  IC50: 59.9 µM

## O=c1c(-c2ccc(O[C@@H]3O[C@H](CO)[C@@H](O)[C@H](O)[C@H]3O)cc2)coc2cc(O)cc(O)c12 [SOPHORICOSIDE]
Neuraminidase [1]
  IC50: > 100 µM
Neuraminidase [2]
  IC50: > 100 µM
Neuraminidase [3]
  IC50: > 100 µM

## O=C1/C(=C/c2ccc(O)c(O)c2)Oc2cc(O)ccc21 [SULFURETIN]
Neuraminidase [1]
  IC50: 51.2 µM
[4]
  CC50: 27.4 µM
Neuraminidase [2]
  IC50: 29.6 µM
Influenza A virus
  IC50: > 9.15 µM
[5]
  MNTC: 9.15 µM
Neuraminidase [3]
  IC50: 36.2 µM

## O=c1cc(-c2ccc(O)cc2)oc2c([C@@H]3O[C@H](CO)[C@@H](O)[C@H](O)[C@H]3O)c(O)cc(O)c12 [VITEXIN]
Neuraminidase [1]
  IC50: 45.1 µM
Neuraminidase [2]
  IC50: 46.5 µM
Neuraminidase [3]
  IC50: 49.6 µM
